Measurements taken from US10743540B2, “3-amino-1,2,4-triazine derivatives and their use for controlling undesired plant growth” (BAYER CROPSCIENCE AKTIENGESELLSCHAFT, priority 2016, dated 2020).

Tests used:
Assay type in all cases: in vivo
STEME: Stellaria media [1] = assay: Pre-emergence herbicidal effect; details: application rate 320 g/ha, scored visually after 3 weeks, 100% = plants have died, 0% = like control plants
Outline: (§1)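 Visual scoring after a 3-week greenhouse period gave percent activity (100% = dead, 0% = like control). Treatment was pre-emergence: aqueous WP or EC formulations with 0.2% wetting agent, applied at 600 to 800 L/ha onto covering soil over seeds in sandy loam.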

[2] = system: ALOMY: Alopecurus myosuroides; assay: Pre-emergence herbicidal effect; details: application rate 320 g/ha, scored visually after 3 weeks, 100% = plants have died, 0% = like control plants
Outline: as §1

[3] = system: POLCO: Polygonum convolvulus; assay: Pre-emergence herbicidal effect; details: application rate 320 g/ha, scored visually after 3 weeks, 100% = plants have died, 0% = like control plants
Outline: as §1

[4] = system: ECHCG: Echinochloa crus-galli; assay: Pre-emergence herbicidal effect; details: application rate 320 g/ha, scored visually after 3 weeks, 100% = plants have died, 0% = like control plants
Outline: as §1

[5] = system: ABUTH: Abutilon theophrasti; assay: Pre-emergence herbicidal effect; details: application rate 320 g/ha, scored visually after 3 weeks, 100% = plants have died, 0% = like control plants
Outline: as §1

VERPE: Veronica persica [6] = assay: Pre-emergence herbicidal effect; details: application rate 320 g/ha, scored visually after 3 weeks, 100% = plants have died, 0% = like control plants
Outline: as §1

[7] = system: LOLMU: Lolium multiflorum; assay: Pre-emergence herbicidal effect; details: application rate 320 g/ha, scored visually after 3 weeks, 100% = plants have died, 0% = like control plants
Outline: as §1

SETVI: Setaria viridis = assay: Pre-emergence herbicidal effect; details: application rate 320 g/ha, scored visually after 3 weeks, 100% = plants have died, 0% = like control plants
Outline: as §1

[8] = system: MATIN: Matricaria inodora; assay: Pre-emergence herbicidal effect; details: application rate 320 g/ha, scored visually after 3 weeks, 100% = plants have died, 0% = like control plants
Outline: as §1

STEME: Stellaria media [9] = assay: Post-emergence herbicidal effect; details: application rate 320 g/ha, treated at one-leaf stage, assessed visually after about 3 weeks, 100% = plants have died
Outline: (§2)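 Seedlings at the one-leaf stage are treated over the foliage with an aqueous spray (600 to 800 L/ha, 0.2% wetting agent) of WP or EC preparations. They then stand in the greenhouse for about 3 weeks before a visual percent score against untreated controls.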

[10] = system: ALOMY: Alopecurus myosuroides; assay: Post-emergence herbicidal effect; details: application rate 320 g/ha, treated at one-leaf stage, assessed visually after about 3 weeks, 100% = plants have died
Outline: as §2

[11] = system: ECHCG: Echinochloa crus-galli; assay: Post-emergence herbicidal effect; details: application rate 320 g/ha, treated at one-leaf stage, assessed visually after about 3 weeks, 100% = plants have died
Outline: as §2

VERPE: Veronica persica [12] = assay: Post-emergence herbicidal effect; details: application rate 320 g/ha, treated at one-leaf stage, assessed visually after about 3 weeks, 100% = plants have died
Outline: as §2

[13] = system: AMARE: Amaranthus retroflexus; assay: Post-emergence herbicidal effect; details: application rate 320 g/ha, treated at one-leaf stage, assessed visually after about 3 weeks, 100% = plants have died
Outline: as §2

VIOTR: Viola tricolor = assay: Post-emergence herbicidal effect; details: application rate 320 g/ha, treated at one-leaf stage, assessed visually after about 3 weeks, 100% = plants have died
Outline: as §2

Row | SMILES | Herbicidal activity with respect to [%] STEME (STEME: Stellaria media [1]) [%] | Herbicidal activity with respect to [%] ALOMY [2] [%] | Herbicidal activity with respect to [%] POLCO [3] [%] | Herbicidal activity with respect to [%] ECHCG [4] [%] | Herbicidal activity with respect to [%] ABUTH [5] [%] | Herbicidal activity with respect to [%] VERPE (VERPE: Veronica persica [6]) [%] | Herbicidal activity with respect to [%] LOLMU [7] [%] | Herbicidal activity with respect to [%] SETVI (SETVI: Setaria viridis) [%] | Herbicidal activity with respect to [%] MATIN [8] [%] | Herbicidal activity with respect to [%] STEME (STEME: Stellaria media [9]) [%] | Herbicidal activity with respect to [%] ALOMY [10] [%] | Herbicidal activity with respect to [%] ECHCG [11] [%] | Herbicidal activity with respect to [%] VERPE (VERPE: Veronica persica [12]) [%] | Herbicidal activity with respect to [%] AMARE [13] [%] | Herbicidal activity with respect to [%] VIOTR (VIOTR: Viola tricolor) [%]
1 | CC(=O)c1nnc(N[C@@H]2CCc3ccc(C)cc32)nc1N [Example 1.72] | 100 | 100 | 100 | 100 | 100 | 100 | 100 | 100 | 100 | 100 | 100 | 100 | 80 | 90 | 90
2 | Cc1ccc2c(c1)[C@H](Nc1nnc(S(C)(=O)=O)c(N)n1)CC2 [Example 1.73] | 100 | 100 | 100 | 100 | 100 | 100 | 100 | 100 | 100 | 100 | 100 | 100 | 100 | 100 | 90
3 | Cc1ccc2c(c1)[C@H](Nc1nnc(C#N)c(N)n1)CC2 [Example 1.70] | 100 | 100 | 100 | 100 | 100 | 100 | 100 | 100 | 100 | 100 | 100 | 100 | 100 | 90 | 90
4 | Cc1ccc2c(c1)[C@H](Nc1nnc([S+](C)[O-])c(N)n1)CC2 (stereo partly drawn) [Example 1.71] | 100 | 100 | 100 | 100 | 100 | 100 | 100 | 100 | 100 | 100 | 90 | 100 | 80 | 80 | 90
5 | Cc1ccc2c(c1)[C@H](Nc1nnc(C(F)(F)F)c(N)n1)CCC2 [Example 1.52] | 100 | 100 | 100 | 100 | 100 | 100 | 100 | 100 | 100 | 100 | 100 | 100 | 90 | 100 | 90
6 | Cc1ccc2c(c1)[C@H](Nc1nnc(C(F)(F)F)c(N)n1)CC2 [Example 1.67] | 100 | 100 | 100 | 100 | 80 | 100 | 100 | 100 | 100 | 100 | 90 | 100 | 90 | 100 | 100
7 | Cc1ccc2c(c1)[C@H](Nc1nnc(C(F)(F)F)c(N)n1)[C@@H](C)C2 [Example 1.23] | 100 | 100 | 100 | 100 | 100 | 100 | 90 | 100 | 100 | 100 | 100 | 100 | 90 | 100 | 100
8 | Nc1nc(N[C@@H]2CCc3ccccc32)nnc1C(F)(F)F [Example 1.24] | 100 | 100 | 100 | 100 | 80 | 100 | 100 | 100 | 100 | 100 | 100 | 100 | 100 | 90 | 100
9 | Cc1ccc2c(c1)[C@H](Nc1nnc([S+](C)[O-])c(N)n1)[C@@H](C)C2 (stereo partly drawn) [Example 1.44] | 100 | 100 | 100 | 100 | 100 | 100 | 100 | 100 | 100 | 90 | 100 | 90 | 100 | 100 | 90
